System: GALAP (Galium aparine)
Experiment: greenhouse experiment, herbicidal action, evaluated on a scale from 0 to 100
Format: in vivo
Details: pre-emergence greenhouse
Text: Synergism can be described as an interaction where the combined effect of two or more compounds is greater than the sum of the individual effects of each of the compounds. The presence of a synergistic effect in terms of percent control, between two mixing partners (X and Y) can be calculated using the Colby equation (Colby, S. R., 1967, Calculating Synergistic and Antagonistic Responses in Herbicide Combinations, Weeds, 15, 21-22): E=X+Y−XY/100
When the observed combined control effect is greater than the expected (calculated) combined control effect (E), then the combined effect is synergistic.
The culture containers used were plastic flowerpots containing loamy sand with approximately 3.0% of humus as the substrate. The seeds of the test plants were sown separately for each species. For pre-emergence treatment, the active ingredients, which had been suspended or emulsified in water, were applied directly after sowing by means of finely distributing nozzles. The containers were irrigated gently to promote germination and growth and subsequently covered with transparent plastic hoods until the plants had rooted. This cover caused uniform germination of the test plants, unless this had been impaired by the active ingredients. […] During this time, the plants were tended, and their response to the individual treatments was evaluated. […]

With `CS(=O)(=O)c1cc(C(F)(F)F)ccc1C(=O)c1cnoc1C1CC1` [Isoxaflutole, isoxaflutole] the “Herbicidal action against GALAP, Found” value (Isoxaflutole 12.5 g/ha alone, 20 days, scale 0 to 100) was 0 and the “Herbicidal action against GALAP, Found” value (Isoxaflutole 25 g/ha alone, test period 20 days, scale 0 to 100 (100 = no emergence or complete destruction)) was 0.

— patent publication US12408667B2, “Herbicidal mixtures comprising isoxaflutole, pyroxasulfone and an imidazolinone herbicide; and their use in soybean and cotton cultures” (BASF SE, priority 2018, dated 2025)
